Test results as given in ChEMBL document CHEMBL1201862, “PubChem BioAssay data set” (2004).
Active and inactive are the calls of the source.

Assays:
[1] = inhibitors of firefly luciferase expression or activity, dose response, H4 neuroglioma cells, luminescence (AID 1990); format: functional, cell-based
[2] = Luminescence Cell-Based Dose Response HTS to Identify Inhibitors of 5'UTR Stem-Loop Driven Prion Protein mRNA Translation in H4 Neuroglioblastoma Cells. [Related pubchem assays: 1827 (Project Summary), 1813 (Primary HTS)]; format: functional
[3] = inhibitors of SNCA 5'UTR-driven reporter translation, confirmation, H4 neuroglioma cells, luminescence (AID 1988); format: functional, cell-based
Protein Tat = target: T1, Protein Tat (Human immunodeficiency virus type 1 group M subtype B (isolate HXB2)(HIV-1), UniProt P04608); format: functional;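 also: tat binding to TAR RNA read out by fluorescence polarization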
T1 sequence (P04608 whole entry): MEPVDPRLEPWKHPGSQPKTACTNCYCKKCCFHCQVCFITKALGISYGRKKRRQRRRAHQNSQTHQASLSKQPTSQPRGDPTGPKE

[4] = target: Peroxisome proliferator-activated receptor gamma/Nuclear receptor coactivator 2 (Homo sapiens, UniProt P37231); format: functional;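 also: agonist potency for raising coactivator recruitment to the receptor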
Sequence of Peroxisome proliferator-activated receptor gamma/Nuclear receptor coactivator 2 (P37231 whole entry): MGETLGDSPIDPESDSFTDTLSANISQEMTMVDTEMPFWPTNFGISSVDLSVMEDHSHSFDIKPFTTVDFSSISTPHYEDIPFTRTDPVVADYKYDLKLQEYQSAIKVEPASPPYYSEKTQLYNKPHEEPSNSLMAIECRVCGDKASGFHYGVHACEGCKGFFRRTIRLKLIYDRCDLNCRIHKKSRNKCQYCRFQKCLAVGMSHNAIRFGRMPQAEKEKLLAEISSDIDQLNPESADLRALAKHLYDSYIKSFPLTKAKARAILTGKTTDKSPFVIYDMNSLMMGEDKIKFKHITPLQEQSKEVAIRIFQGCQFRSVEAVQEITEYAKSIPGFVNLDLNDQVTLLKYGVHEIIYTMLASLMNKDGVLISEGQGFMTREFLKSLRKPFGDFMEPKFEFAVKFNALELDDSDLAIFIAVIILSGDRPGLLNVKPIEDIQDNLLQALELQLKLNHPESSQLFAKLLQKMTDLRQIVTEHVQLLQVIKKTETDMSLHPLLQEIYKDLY
Sequence of Peroxisome proliferator-activated receptor gamma/Nuclear receptor coactivator 2 (Q15596 whole entry, further chain): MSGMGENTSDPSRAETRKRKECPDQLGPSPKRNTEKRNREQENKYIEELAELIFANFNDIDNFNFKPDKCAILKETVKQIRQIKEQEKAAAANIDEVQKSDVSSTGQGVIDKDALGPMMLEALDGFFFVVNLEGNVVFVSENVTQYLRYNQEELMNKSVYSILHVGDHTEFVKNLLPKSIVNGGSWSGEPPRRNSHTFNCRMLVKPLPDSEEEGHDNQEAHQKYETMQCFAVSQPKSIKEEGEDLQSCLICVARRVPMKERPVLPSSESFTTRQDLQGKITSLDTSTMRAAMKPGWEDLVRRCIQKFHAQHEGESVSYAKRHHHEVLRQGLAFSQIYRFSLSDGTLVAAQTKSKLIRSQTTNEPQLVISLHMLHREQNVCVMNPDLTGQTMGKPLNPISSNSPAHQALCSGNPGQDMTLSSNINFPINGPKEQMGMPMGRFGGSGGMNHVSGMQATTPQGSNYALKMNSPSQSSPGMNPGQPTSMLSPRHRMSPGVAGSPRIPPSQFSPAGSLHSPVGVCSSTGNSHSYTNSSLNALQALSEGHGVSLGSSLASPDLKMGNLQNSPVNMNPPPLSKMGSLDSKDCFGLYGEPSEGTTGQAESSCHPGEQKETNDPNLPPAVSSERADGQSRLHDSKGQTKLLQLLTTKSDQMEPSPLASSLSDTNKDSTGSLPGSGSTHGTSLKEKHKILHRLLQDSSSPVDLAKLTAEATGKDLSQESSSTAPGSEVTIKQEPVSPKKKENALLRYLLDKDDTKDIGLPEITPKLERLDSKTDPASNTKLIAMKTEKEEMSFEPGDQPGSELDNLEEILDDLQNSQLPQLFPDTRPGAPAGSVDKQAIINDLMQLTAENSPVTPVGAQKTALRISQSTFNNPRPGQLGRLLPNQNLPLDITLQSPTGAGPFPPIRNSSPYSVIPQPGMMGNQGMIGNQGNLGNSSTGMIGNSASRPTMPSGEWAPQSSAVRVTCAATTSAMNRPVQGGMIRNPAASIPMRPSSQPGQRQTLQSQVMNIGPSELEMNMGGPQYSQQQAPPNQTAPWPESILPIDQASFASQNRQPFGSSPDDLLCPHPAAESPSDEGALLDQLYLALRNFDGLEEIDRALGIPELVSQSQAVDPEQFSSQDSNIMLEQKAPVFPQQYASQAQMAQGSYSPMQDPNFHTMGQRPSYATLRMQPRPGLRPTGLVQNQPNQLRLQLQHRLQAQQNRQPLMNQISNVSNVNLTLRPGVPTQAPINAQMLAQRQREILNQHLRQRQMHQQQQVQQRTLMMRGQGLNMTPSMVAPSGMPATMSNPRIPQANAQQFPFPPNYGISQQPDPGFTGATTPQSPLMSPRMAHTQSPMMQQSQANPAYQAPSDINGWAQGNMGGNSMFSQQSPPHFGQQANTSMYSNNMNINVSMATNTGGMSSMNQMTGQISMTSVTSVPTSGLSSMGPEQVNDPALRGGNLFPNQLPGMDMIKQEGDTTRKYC

[5] = target: Peroxisome proliferator-activated receptor gamma/Nuclear receptor coactivator 1 (Homo sapiens, UniProt P37231); format: functional;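 also: agonist potency as compounds enhance coactivator SRC-1 recruitment to PPARgamma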
Sequence of Peroxisome proliferator-activated receptor gamma/Nuclear receptor coactivator 1 (P37231 whole entry): as the sequence (P37231 whole entry) above
Sequence of Peroxisome proliferator-activated receptor gamma/Nuclear receptor coactivator 1 (Q15788 whole entry, further chain): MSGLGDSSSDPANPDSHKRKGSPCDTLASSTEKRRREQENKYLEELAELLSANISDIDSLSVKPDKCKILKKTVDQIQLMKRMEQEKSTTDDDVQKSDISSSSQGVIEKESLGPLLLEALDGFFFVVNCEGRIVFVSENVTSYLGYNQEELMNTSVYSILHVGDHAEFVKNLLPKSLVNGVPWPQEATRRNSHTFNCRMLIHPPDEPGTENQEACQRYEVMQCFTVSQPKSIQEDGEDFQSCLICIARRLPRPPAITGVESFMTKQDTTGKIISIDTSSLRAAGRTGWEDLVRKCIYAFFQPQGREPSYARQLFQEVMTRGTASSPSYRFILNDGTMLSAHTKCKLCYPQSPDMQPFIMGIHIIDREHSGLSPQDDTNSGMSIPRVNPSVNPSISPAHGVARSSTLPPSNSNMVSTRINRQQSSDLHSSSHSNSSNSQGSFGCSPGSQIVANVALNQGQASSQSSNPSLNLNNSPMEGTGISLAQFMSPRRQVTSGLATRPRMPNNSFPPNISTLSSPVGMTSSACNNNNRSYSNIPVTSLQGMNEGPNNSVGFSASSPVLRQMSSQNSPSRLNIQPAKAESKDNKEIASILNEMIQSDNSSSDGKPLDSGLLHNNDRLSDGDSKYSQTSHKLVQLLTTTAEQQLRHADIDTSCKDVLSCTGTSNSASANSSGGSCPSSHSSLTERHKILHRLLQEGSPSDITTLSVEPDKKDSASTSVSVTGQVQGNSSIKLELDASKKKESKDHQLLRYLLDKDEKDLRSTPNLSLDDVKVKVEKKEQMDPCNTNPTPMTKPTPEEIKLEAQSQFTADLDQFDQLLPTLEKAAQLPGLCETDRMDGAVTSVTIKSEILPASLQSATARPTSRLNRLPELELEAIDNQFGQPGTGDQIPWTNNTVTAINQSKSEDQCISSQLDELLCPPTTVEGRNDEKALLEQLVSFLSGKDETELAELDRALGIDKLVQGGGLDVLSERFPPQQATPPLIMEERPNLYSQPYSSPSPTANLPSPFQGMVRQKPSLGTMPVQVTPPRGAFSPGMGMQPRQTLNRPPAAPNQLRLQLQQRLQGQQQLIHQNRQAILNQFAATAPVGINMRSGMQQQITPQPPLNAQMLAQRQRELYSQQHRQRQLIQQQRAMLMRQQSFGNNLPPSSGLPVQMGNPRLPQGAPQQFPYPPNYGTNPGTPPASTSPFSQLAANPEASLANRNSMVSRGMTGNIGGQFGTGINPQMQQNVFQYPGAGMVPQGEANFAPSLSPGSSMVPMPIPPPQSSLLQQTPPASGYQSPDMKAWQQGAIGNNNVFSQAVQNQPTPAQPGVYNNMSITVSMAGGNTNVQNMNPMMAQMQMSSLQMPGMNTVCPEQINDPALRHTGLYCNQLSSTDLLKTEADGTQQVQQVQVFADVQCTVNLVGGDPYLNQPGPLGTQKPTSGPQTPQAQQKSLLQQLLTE

[6] = target: Peroxisome proliferator-activated receptor gamma/Nuclear receptor coactivator 3 (Homo sapiens, UniProt P37231); format: functional;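 also: agonist potency for raising coactivator recruitment to the receptor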
BJ [7] = test: cytotoxicity toward BJ-TERT fibroblasts, dose response, cell-based, RAS-independent, luminescence (AID 1933); format: functional; details: Homo sapiens
BJ [8] = test: cells; format: functional, cell-based; details: Homo sapiens
BJ [9] = test: cytotoxicity toward BJ-TERT-LT-ST fibroblasts, dose response, cell-based, RAS-independent, luminescence (AID 1935); format: functional; details: Homo sapiens;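 also: BJ fibroblasts immortalized with TERT plus LT and ST oncogenes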
[10] = cytotoxicity toward DRD oncogenic fibroblasts, dose response, cell-based, non-viral oncogenic, luminescence (AID 1934); format: functional; details: Homo sapiens
[11] = Shn3 3'UTR reporter inhibitors, dose response, cell-based, Clone20 osteoblasts, firefly luciferase, cherry-picked (AID 624132); format: functional;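 also: firefly luciferase luminescence from reporter carrying the Shn3 3'UTR in osteoblasts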
[12] = HepG2 cell cytotoxicity, dose response, cytotoxicity control for Shn3 inhibitor project, CellTiter-Glo, cherry-picked (AID 624134); format: functional, cell-based
[13] = control 3'UTR Renilla luciferase suppression, dose response, counter-screen for Shn3 inhibitor project, cell-based, Clone20-Shn3RL, cherry-picked (AID 624133); format: functional
[14] = target: NAD-dependent protein deacylase sirtuin-5, mitochondrial (Homo sapiens, UniProt Q9NXA8); test: SIRT5 desuccinylase inhibitors, dose response, biochemical, fluorescence imaging, cherry-pick, set 5 (AID 720591);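 also: desuccinylation of succinyl peptide AMC substrate read as fluorescence after trypsin release; potency of inhibitors that lower fluorescence and may act on trypsin instead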
Sequence of NAD-dependent protein deacylase sirtuin-5, mitochondrial (Q9NXA8 whole entry): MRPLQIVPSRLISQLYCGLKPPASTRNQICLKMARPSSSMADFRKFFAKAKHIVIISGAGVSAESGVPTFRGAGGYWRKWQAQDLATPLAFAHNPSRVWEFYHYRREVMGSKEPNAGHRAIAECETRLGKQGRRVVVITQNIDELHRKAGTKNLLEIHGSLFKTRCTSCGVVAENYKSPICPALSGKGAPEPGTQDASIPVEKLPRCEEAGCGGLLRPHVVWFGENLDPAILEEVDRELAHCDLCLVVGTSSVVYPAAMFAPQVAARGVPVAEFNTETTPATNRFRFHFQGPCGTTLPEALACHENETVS

[15] = target: T2, Replicative DNA helicase DnaB (Mycobacterium tuberculosis, UniProt P9WMR3); test: DnaB intein splicing inhibitors, dose response, biochemical, cell-free fluorescence (AID 449749); format: functional
T2 sequence (P9WMR3 whole entry): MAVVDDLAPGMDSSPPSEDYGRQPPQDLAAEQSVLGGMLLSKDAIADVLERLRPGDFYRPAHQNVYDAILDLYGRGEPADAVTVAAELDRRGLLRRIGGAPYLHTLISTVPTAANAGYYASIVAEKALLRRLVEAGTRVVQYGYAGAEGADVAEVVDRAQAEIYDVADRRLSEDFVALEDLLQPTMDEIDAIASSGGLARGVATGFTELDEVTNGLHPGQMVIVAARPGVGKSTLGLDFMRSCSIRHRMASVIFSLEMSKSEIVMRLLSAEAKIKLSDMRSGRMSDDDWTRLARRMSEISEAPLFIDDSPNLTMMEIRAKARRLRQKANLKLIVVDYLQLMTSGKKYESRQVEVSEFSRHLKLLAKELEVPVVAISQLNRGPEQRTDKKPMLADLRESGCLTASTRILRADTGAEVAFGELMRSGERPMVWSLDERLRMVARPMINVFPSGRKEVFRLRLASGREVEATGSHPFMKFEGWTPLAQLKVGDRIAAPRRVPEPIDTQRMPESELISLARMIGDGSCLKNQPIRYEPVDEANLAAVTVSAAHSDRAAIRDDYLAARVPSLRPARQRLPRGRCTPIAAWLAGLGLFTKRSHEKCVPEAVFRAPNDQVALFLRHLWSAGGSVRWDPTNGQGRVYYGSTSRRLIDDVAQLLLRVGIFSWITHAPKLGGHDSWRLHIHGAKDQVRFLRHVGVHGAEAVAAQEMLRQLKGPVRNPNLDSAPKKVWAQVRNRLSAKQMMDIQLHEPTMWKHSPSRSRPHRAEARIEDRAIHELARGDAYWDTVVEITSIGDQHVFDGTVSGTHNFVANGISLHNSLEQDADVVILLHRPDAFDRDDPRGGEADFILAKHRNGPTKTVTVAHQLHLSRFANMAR

Protein RecA = target: T3, Protein RecA (Mycobacterium tuberculosis, UniProt P9WHJ3); test: Fluorescence Cell-Free Homogeneous Dose Retest to Identify Inhibitors of RecA-Intein Splicing Activity. [Related pubchem assays (depositor defined):AID2097, AID2223, AID489010, AID492950]; format: functional
T3 sequence (P9WHJ3 whole entry): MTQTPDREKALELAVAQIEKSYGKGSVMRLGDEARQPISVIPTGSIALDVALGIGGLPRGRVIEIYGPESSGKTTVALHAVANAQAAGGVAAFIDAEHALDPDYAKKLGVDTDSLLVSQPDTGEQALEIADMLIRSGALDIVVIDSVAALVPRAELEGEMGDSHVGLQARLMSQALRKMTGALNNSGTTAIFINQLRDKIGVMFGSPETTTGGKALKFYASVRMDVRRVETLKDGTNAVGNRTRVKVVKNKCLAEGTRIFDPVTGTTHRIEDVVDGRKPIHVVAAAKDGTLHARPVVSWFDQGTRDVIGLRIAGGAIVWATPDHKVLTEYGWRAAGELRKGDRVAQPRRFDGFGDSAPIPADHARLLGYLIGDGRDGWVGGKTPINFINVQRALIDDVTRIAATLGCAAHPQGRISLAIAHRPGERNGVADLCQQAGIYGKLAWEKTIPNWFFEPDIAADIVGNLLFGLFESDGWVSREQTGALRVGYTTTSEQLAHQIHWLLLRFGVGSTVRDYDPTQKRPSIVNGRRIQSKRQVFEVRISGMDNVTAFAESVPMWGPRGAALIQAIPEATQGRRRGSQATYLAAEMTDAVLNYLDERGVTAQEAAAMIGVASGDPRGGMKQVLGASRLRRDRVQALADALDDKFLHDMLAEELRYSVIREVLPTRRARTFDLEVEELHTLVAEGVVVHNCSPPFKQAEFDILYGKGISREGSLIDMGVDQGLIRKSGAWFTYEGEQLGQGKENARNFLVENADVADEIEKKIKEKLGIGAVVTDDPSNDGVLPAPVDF

[16] = target: Disintegrin and metalloproteinase domain-containing protein 17 (Homo sapiens, UniProt P78536); test: exosite inhibitors of ADAM17, dose response, biochemical (AID 743260)
[17] = target: Eukaryotic translation initiation factor 4E (Mus musculus, UniProt P63073); test: eIF4E–eIF4G protein interaction inhibitors, dose response, biochemical, TR-FRET (AID 855); format: functional;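 also: potency for disrupting eIF4E binding to eIF4GI seen as loss of FRET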
Sequence of Eukaryotic translation initiation factor 4E (P63073 whole entry): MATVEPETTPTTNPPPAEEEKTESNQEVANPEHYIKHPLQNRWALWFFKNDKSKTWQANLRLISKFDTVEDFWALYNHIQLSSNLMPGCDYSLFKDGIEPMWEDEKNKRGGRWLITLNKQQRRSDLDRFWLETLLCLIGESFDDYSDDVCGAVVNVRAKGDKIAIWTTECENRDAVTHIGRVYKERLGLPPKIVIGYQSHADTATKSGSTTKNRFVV

Paired box protein Pax-8 = Paired box protein Pax-8 (Homo sapiens, UniProt Q06710); test: inhibitors of PAX8-driven TPO luciferase reporter, dose response, RMG-I cells, cherry-pick (AID 687027); format: functional, cell-based;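 also: luciferase reporter driven by Pax8 target thyroperoxidase promoter measured by SteadyGlo luminescence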
[18] = NIH:OVCAR-3 ovarian cancer cell cytotoxicity, dose response, PAX8 inhibitor project, plate reader, dry powder samples (AID 743044); format: functional, cell-based
[19] = IGROV1 ovarian cancer cell cytotoxicity, dose response, PAX8 inhibitor project, plate reader, dry powder samples (AID 743043); format: functional, cell-based; details: IGROV-1
[20] = cytotoxicity in OVCAR4 cells, dose response, cytotoxicity control for PAX8 inhibitor project, cell-based, plate reader, dry powder, SA11 (AID 743150); format: functional; details: OVCAR-4
[21] = cytotoxicity in OV-90 ovarian cancer cells, dose response, PAX8 inhibitor project, cell-based, plate reader, dry powder, SA8 (AID 743149); format: functional
[22] = cytotoxicity dependent on PAX8, dose response, cell-based, plate reader, dry powder (AID 743049); format: functional
[23] = Luminescence Cell-Based Dose Retest to Confirm Inhibitors of Cancer Stem Cells. [Related pubchem assays (depositor defined):AID2717, AID2721]; format: functional; details: Homo sapiens
[24] = target: Neurotensin receptor type 1 (Homo sapiens, UniProt P30989); format: functional;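 also: Image-based confirmatory dose-response assay measuring agonist activity at NTR1; NTR1-expressing U2OS osteosarcoma cells imaged for beta-arrestin GFP spot formation; agonist potency where compounds increase beta-arrestin recruitment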
Sequence of Neurotensin receptor type 1 (P30989 whole entry): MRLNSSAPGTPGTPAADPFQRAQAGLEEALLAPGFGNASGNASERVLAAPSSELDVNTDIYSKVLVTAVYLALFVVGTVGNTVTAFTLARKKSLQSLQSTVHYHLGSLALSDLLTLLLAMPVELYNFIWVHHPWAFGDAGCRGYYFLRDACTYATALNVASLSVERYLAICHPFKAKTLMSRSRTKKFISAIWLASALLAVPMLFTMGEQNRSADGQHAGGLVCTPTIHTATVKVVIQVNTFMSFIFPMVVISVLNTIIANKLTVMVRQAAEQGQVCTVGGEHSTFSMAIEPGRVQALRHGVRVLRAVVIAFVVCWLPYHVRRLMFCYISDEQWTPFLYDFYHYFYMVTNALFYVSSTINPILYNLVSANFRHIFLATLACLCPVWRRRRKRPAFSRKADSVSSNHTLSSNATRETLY

INS1 = test: beta cell apoptosis inhibitors, cytokine rescue, dose response, luminescence, retest (AID 449756); format: functional, cell-based; details: Rattus norvegicus;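 also: cell death triggered by IL-1 beta plus TNF-alpha plus IFN-gamma mixture; protective hits raise ATP signal compared with cytokine alone wells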
[25] = Luminescence Cell-Based Dose Confirmation HTS to Identify Activators of 5'UTR Stem-Loop Driven Alpha-Synuclein mRNA Translation in H4 Neuroglioblastoma Cells. [Related pubchem assays: 1829 (Project Summary), 1814 (Primary HTS)]; format: functional
[26] = Luminescence Cell-Based Dose Response HTS to Identify Activators of Luciferase Translation or Activity in H4 […] Cells. [Related pubchem assays: 1829 (Project Summary), 1814 (Primary HTS)]; format: functional
[27] = test system: Streptococcus sp. 'group A'; test: growth inhibition of control SK(-) GAS strain, dose response, counter-screen for streptokinase expression inhibitor project, luminescence, kanamycin, BacTiterGlo, confirmation (AID 1900); format: functional, organism-based
H4 = test: Luminescence Cell-Based Dose Response HTS to Identify Activators of 5'UTR Stem-Loop Driven Prion Protein mRNA Translation in H4 Neuroglioblastoma Cells. [Related pubchem assays: 1829 (Project Summary), 1814 (Primary HTS)]; format: functional; details: Homo sapiens
[28] = inhibitors of intracellular T. cruzi replication, confirmation, NIH3T3 host cells, beta-gal luminescence (AID 2044); format: functional, cell-based;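 also: intracellular parasites grown in NIH/3T3 mouse fibroblasts as host cells; luminescent beta-galactosidase reporter signal from transgenic T. cruzi replicating inside host cells; inhibitors lower the luminescence signal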
[29] = microbe, parasite or virus in culture; format: functional; details: Mycobacterium tuberculosis
[30] = cytotoxicity toward NIH3T3 fibroblasts, dose response, counter-screen, cell-based, ATP luminescence, mouse fibroblasts (AID 2010); format: functional;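 also: cells exposed to compound for about 90 hours before reading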
Streptococcus = test: Group A Streptococcus viability loss, dose response, counter-screen for streptokinase expression inhibitor project, luminescence, BacTiterGlo (AID 1915); format: functional, organism-based;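 also: potency for reduction of bacterial viability or growth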
[31] = half-maximal inhibitory concentration for glucagon-like peptide-1 release, STC-1 cell line, dose-response (AID 1117345); format: functional, cell-based
[32] = Glucagon-like peptide 1 release potency, NCI-H716 cell line, dose-response, half-maximal inhibitory concentration (AID 1117344); format: functional, cell-based

## CC(C)C[C@H](NC(=O)c1[nH]cnc1C(=O)N1CCN(c2ccccc2)CC1)C(=O)OC(C)(C)C
[1]
  EC50: 14.5 µM (active)
[2]
  EC50: 65.1 µM (active)
[3]
  EC50: 26.5 µM (active)
Protein Tat
  IC50: > 100 µM (active)

## O=c1oc2ccccc2cc1-c1cn2ccccc2n1
[4]
  EC50: > 79.4 µM (not active)
[5]
  EC50: > 79.4 µM (not active)
[6]
  EC50: > 79.4 µM (not active)
BJ [7]
  EC50: 11 µM (active)
BJ [8]
  EC50: 2.92 µM (active)
BJ [9]
  EC50: 17.1 µM (active)
[10]
  EC50: 3.59 µM (active)
[11]
  AC50: 3.64 µM (active)
[12]
  AC50: > 70 µM (inactive)
[13]
  AC50: 20.3 µM (active)

## Cc1ccc(Cn2c(N3CCNCC3)nc3c2c(=O)[nH]c(=O)n3C)cc1
[14]
  AC50: 25.2 µM (active)

## COc1cc(C(c2c(C)[nH][nH]c2=O)c2c(C)[nH][nH]c2=O)ccc1OCc1ccc([N+](=O)[O-])cc1
[15]
  AC50: 0.338 µM (active)
Protein RecA
  EC50: 0.178 µM (active)
[16]
  IC50: > 69.5 µM (inactive)

## OC(C#CCN1CCCC1)(c1ccccc1)c1cccc(F)c1 (stereo unspecified)
[4]
  EC50: > 79.4 µM (not active)
[5]
  EC50: > 79.4 µM (not active)
[6]
  EC50: > 79.4 µM (not active)

## O=C(NCCc1ccncc1)c1ccccc1F
[17]
  IC50: > 64 µM (inactive)

## CC(C)N1CCN(Cc2ccc(Oc3ncccn3)cc2)CC1CCO (stereo unspecified)
[4]
  EC50: > 79.4 µM (not active)
[5]
  EC50: > 79.4 µM (not active)
[6]
  EC50: > 79.4 µM (not active)

## O=C(CCS(=O)(=O)c1ccccc1)Nc1nc2ccc(F)cc2s1
Paired box protein Pax-8
  AC50: 3.55 µM (active)
[18]
  AC50: 28 µM (active)
[19]
  AC50: 36.9 µM (active)
[20]
  AC50: > 100 µM (inactive)
[21]
  AC50: > 100 µM (inactive)
[22]
  AC50: 20.3 µM (active)

## CCN(CC(=O)Nc1ccccc1C(F)(F)F)C(=O)c1ccc2c(=O)n3c(nc2c1)CCC3
[14]
  AC50: > 30 µM (inactive)

## CSc1oc(-c2ccco2)nc1S(=O)(=O)c1ccccc1
Protein Tat
  IC50: > 100 µM (active)

## Cc1ccc(NC(=O)CSc2nnc(-c3ccc(S(=O)(=O)N4CCCC4)cc3)o2)cc1C
[4]
  EC50: 39.8 µM (not active)
[5]
  EC50: 81.2 µM (not active)
[6]
  EC50: > 79.4 µM (not active)

## Cc1cc(F)ccc1S(=O)(=O)Nc1ccccc1C(=O)Nc1ccccc1-c1nc2ccccc2[nH]1
[23]
  AC50: 2.02 µM (active)
[24]
  EC50: 29 µM (inactive)
INS1
  AC50: 6.59 µM (active)
[11]
  AC50: 12.1 µM (active)
[12]
  AC50: 23.2 µM (active)
[13]
  AC50: 9.69 µM (active)

## CC(C)CC(=O)N1CCN(Cc2cccc(F)c2)CC1
[17]
  IC50: > 64 µM (inactive)

## Cc1ccc(CCN2CC(C(=O)NCCN(C)C)CC2=O)cc1 (stereo unspecified)
[14]
  AC50: > 30 µM (inactive)

## C[C@H](CO)N1C[C@H](C)[C@H](CN(C)C(=O)Nc2cccc3ccccc23)OCc2cnnn2CCCC1=O
[14]
  AC50: 2.28 µM (active)

## O=C(N/N=C/c1ccc(OC(=O)c2ccccc2Cl)cc1)c1ccc(O)cc1
[24]
  EC50: 17.1 µM (active)

## C#C[C@]1(O)CC[C@H]2[C@@H]3CCc4cc(OC5CCCC5)ccc4[C@H]3CC[C@@]21C [QUINESTROL]
[25]
  EC50: > 120 µM (not active)
[26]
  EC50: > 120 µM (not active)
[27]
  EC50: 1.94 µM (active)
H4
  EC50: > 120 µM (not active)
[28]
  EC50: 4.43 µM (active)
[29]
  CC50: > 40 µM (active)
[30]
  EC50: > 60 µM (not active)
Streptococcus
  EC50: 4.17 µM (active)
[31]
  IC50: > 40 µM (inactive)
[32]
  IC50: 17.6 µM (inactive)
